“And” between values parts separate entries of the source, which are not always exact repeats. Equal values may be shown once.
Key:
PIV-5 RdRp complex = PIV-5 RdRp complex (Parainfluenza virus 5, UniProt Q88434)
[1] = target: human mitochondrial RNA polymerase (h-mtRNAP) (Homo sapiens, UniProt O00411); assay type: biochemical
RSV RdRp complex = RSV RdRp complex (Human respiratory syncytial virus A, UniProt P28887)
EV-71 RdRp [2] = assay type: biochemical
HMPV RdRp = HMPV RdRp (Human metapneumovirus, UniProt Q6WB93); assay type: biochemical
SARS-CoV-2 RdRp = SARS-CoV-2 RdRp (Severe acute respiratory syndrome coronavirus 2, UniProt P0DTD1); assay type: biochemical
HMPV RdRp complex = HMPV RdRp complex (Human metapneumovirus, UniProt Q6WB93)
EV-71 RdRp (3Dpol) = EV-71 RdRp (3Dpol) (Enterovirus A71, UniProt E5RPG3)
EV-71 RdRp [3] = assay type: biochemical; remark: listed apart in the source
HPIV-3 RdRp = HPIV-3 RdRp (Human parainfluenza 3 virus, UniProt P12577); assay type: biochemical
HRV-16 RdRp [4] = target: T1, HRV-16 RdRp (Human rhinovirus 16, UniProt Q82122); assay type: biochemical
PIV-5 RdRp = PIV-5 RdRp (Parainfluenza virus 5, UniProt Q88434); assay type: biochemical
MERS-CoV RdRp = MERS-CoV RdRp (Middle East respiratory syndrome-related coronavirus, UniProt K9N7C7); assay type: biochemical
MERS-CoV RdRp complex = MERS-CoV RdRp complex (Middle East respiratory syndrome-related coronavirus, UniProt K9N7C7)
EV-71 RdRp [5] = assay type: biochemical; remark: listed apart in the source
RSV RdRp = RSV RdRp (Human respiratory syncytial virus A, UniProt P28887); assay type: biochemical
HRV-16 RdRp [6] = target: T1, HRV-16 RdRp; assay type: biochemical; remark: listed apart in the source
HRV-16 RdRp [7] = target: T1, HRV-16 RdRp; assay type: biochemical; remark: listed apart in the source
HRV-16 RdRp (3Dpol) = HRV-16 RdRp (3Dpol) (Human rhinovirus 16, UniProt Q82122)
SARS-CoV-2 RdRp complex = SARS-CoV-2 RdRp complex (Severe acute respiratory syndrome coronavirus 2, UniProt P0DTD1)

Sequence of human mitochondrial RNA polymerase (h-mtRNAP) (O00411 42-1230 limits assumed): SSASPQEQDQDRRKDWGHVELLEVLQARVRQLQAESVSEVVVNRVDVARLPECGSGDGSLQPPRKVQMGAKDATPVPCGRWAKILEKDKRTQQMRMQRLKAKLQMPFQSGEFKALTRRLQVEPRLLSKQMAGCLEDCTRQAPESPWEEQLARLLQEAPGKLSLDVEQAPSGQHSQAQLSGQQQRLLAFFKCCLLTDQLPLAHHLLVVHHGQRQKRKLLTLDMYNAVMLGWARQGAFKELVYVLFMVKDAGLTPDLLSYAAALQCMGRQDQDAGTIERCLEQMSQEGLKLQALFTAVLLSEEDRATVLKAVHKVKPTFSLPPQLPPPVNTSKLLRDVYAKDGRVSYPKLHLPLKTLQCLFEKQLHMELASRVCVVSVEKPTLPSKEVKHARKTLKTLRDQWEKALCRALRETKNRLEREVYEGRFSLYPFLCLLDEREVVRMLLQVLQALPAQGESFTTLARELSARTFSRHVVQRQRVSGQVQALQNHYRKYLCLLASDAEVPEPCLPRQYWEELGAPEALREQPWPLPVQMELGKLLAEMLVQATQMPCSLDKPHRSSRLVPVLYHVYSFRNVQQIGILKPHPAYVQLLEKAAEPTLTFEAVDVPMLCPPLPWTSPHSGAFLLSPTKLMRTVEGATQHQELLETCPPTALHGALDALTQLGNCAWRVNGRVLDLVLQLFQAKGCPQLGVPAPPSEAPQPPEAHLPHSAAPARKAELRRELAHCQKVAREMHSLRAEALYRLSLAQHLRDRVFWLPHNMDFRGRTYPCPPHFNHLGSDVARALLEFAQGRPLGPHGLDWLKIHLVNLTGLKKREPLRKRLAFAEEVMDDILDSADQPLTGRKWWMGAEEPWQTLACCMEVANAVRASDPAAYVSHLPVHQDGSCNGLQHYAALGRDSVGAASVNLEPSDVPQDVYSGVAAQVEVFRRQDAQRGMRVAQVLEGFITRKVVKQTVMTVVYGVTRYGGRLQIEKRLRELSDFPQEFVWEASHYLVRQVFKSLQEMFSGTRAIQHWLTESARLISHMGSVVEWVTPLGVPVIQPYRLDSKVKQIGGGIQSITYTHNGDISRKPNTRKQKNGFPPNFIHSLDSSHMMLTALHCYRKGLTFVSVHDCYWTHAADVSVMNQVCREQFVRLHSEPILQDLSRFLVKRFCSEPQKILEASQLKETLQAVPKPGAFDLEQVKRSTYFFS

N#C[C@]1(COP(=O)(O)OP(=O)(O)OP(=O)(O)O)O[C@@H](c2ccc3c(N)ncnn23)[C@H](O)[C@@H]1O [GS-646939]
Selectivity (fold), Vmax/Km ATP over Vmax/Km analog (PIV-5 RdRp complex): 5.05 fold | Selectivity (fold), Vmax/Km ATP over Vmax/Km analog [1]: 1538 fold | Selectivity (fold), Vmax/Km ATP over Vmax/Km analog (RSV RdRp complex): 1.58 fold | Inhibition (fold) of UTP incorporation across embedded analog (EV-71 RdRp [2]): ~9 fold | Pattern of inhibition of RNA primer extension after incorporation at position i (HMPV RdRp): immediate chain termination | Vmax (product fraction) of UTP incorporation at i + 1 (HMPV RdRp): 0.087 ± 0.030 | Vmax (product fraction) of UTP incorporation at i + 1 (SARS-CoV-2 RdRp): 0.79 ± 0.036 | Selectivity (fold), Vmax/Km ATP over Vmax/Km analog (HMPV RdRp complex): 1.73 fold | Incorporated more efficiently than natural ATP counterpart (EV-71 RdRp (3Dpol)): 20-50 fold | CI average (CIavg) ± standard deviation (EV-71 RdRp [3]): 0.07 | Preference for GS-646939 over GS-443902 under competitive conditions (EV-71 RdRp [3]): greater than 30 fold | Pattern of inhibition of RNA primer extension after incorporation at position i (HPIV-3 RdRp): immediate chain termination | Vmax (product fraction) of UTP incorporation at i + 1 (HPIV-3 RdRp): 0.61 ± 0.0099 | Pattern of inhibition of RNA primer extension after incorporation at position i (HRV-16 RdRp [4]): immediate chain-termination | Vmax (product fraction) of UTP incorporation at i + 1 (HRV-16 RdRp [4]): 0.83 ± 0.012 | Pattern of inhibition of RNA primer extension after incorporation at position i (PIV-5 RdRp): immediate chain termination | Vmax (product fraction) of UTP incorporation at i + 1 (PIV-5 RdRp): 0.058 ± 0.080 | Vmax (product fraction) of UTP incorporation at i + 1 (MERS-CoV RdRp): 0.91 ± 0.10 | Selectivity (fold), Vmax/Km ATP over Vmax/Km analog (MERS-CoV RdRp complex): 1.17 fold | Pattern of inhibition of RNA primer extension after incorporation at position i (EV-71 RdRp [5]): immediate chain-termination | Vmax (product fraction) of UTP incorporation at i + 1 (EV-71 RdRp [5]): 0.81 ± 0.017 | Pattern of inhibition of RNA primer extension after incorporation at position i (RSV RdRp): immediate chain termination | Vmax (product fraction) of UTP incorporation at i + 1 (RSV RdRp): 0.15 ± 0.0029 | Inhibition (fold) vs Template A (HRV-16 RdRp [6]): ~2 fold and 2.0 fold | UTP (HRV-16 RdRp [6]): 1.0 µM | CI average (CIavg) ± standard deviation (HRV-16 RdRp [7]): 0.04 | Preference for GS-646939 over GS-443902 under competitive conditions (HRV-16 RdRp [7]): greater than 30 fold | Incorporated more efficiently than natural ATP counterpart (HRV-16 RdRp (3Dpol)): 20-50 fold | Selectivity (fold), Vmax/Km ATP over Vmax/Km analog (SARS-CoV-2 RdRp complex): 1.37 fold

From article PMC11345399 (The Journal of Biological Chemistry, 2024)
